From ChEMBL document CHEMBL5523756, “Molecular Transformers: Adaptive Multitarget Ligands for Esterase-Induced Transition from Analgesics to Anesthetics” (J Med Chem, 2024) come the findings set out here.

Calls of active or inactive are those of the source.

For orientation: IC50 means the concentration that inhibits the measured activity by half. In general, inhibition refers to how much of the control response was suppressed. Read a high inhibition as a strong effect. For orientation: half-life means the time needed for the level to fall by half in the phase considered.

Data set [1] in a line: Toxicity in Sprague-Dawley rat assessed as effect on end expiratory pause at 19 mg/kg administered as continuous infusion followed by maintenance at 3.25 mg/kg/min for 0 to 20 mins, 2.5 mg/kg/min for 20 to 30 mins and 2 mg/kg/min for 30 to 60 mins and measured every 5 mins for 60 mins by whole-body plethysmography. It is filed as organism-based. The settings on record: in vivo, other, 1 h, route par.

Data set [2] in a line: Toxicity in Sprague-Dawley rat assessed as effect on LDH level at 19 mg/kg administered as continuous infusion followed by maintenance at 3.25 mg/kg/min for 0 to 20 mins, 2.5 mg/kg/min for 20 to 30 mins and 2 mg/kg/min for 30 to 60 mins. It is filed as organism-based. The settings on record: in vivo, other, 1 h, route par.
Data set [3] is described as follows: Toxicity in ICR mouse assessed as histopathological changes in liver at 1.5 times ED50, iv administered as single dose and measured after 14 days by H and E staining based analysis. The note with it: in vivo, 336 h, time 14 day. It is filed as organism-based.
Data set [4] has as its target T1, Sodium channel protein type 10 subunit alpha (Homo sapiens, UniProt Q9Y5Y9). Briefly: Inhibition of Nav1.8 channel (unknown origin) at half inactivation state at -120 mV conditioning pulse by voltage clamp electrophysiological recording.
For another data set, the target named is T2, CYP1A2 (Homo sapiens, UniProt P05177).
T2 sequence (P05177 whole entry): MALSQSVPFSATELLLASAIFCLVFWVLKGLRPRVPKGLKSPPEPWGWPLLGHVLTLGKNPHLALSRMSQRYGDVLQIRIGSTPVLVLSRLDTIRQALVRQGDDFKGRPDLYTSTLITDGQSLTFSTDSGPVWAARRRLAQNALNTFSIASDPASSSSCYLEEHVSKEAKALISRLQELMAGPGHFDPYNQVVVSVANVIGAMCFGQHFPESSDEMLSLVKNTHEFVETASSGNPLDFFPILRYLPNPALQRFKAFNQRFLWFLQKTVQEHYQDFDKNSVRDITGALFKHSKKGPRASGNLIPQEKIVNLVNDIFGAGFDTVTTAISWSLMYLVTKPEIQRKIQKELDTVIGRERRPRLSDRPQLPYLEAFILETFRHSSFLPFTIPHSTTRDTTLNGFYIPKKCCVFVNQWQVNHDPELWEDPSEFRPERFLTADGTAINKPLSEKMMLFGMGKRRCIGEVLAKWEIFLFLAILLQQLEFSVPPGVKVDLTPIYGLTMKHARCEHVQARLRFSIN
Briefly: Inhibition of CYP1A2 (unknown origin) using phenacetin as substrate at 10 uM relative to control. The note with it: probe phenacetin. It is filed as ADME.

The nature of data set [5]: Toxicity in Sprague-Dawley rat assessed as effect on alpha-HBDH level at 19 mg/kg administered as continuous infusion followed by maintenance at 3.25 mg/kg/min for 0 to 20 mins, 2.5 mg/kg/min for 20 to 30 mins and 2 mg/kg/min for 30 to 60 mins. It is filed as organism-based. The settings on record: in vivo, other, 1 h, route par.
Data set [6] concerns the target Sodium channel protein type 9 subunit alpha (Homo sapiens, UniProt Q15858). Briefly: Inhibition of Nav1.7 channel (unknown origin) at half inactivation state at -120 mV conditioning pulse by voltage clamp electrophysiological recording.
Data set [7] concerns the target T1, Sodium channel protein type 10 subunit alpha. In words: Inhibition of Nav1.8 channel (unknown origin) at resting state at -120 mV conditioning pulse by voltage clamp electrophysiological recording.
The nature of data set [8]: Stability in rat plasma assessed as half life at 1 mg/ml measured upto 360 mins by HPLC analysis. It is filed as ADME, cell-free.
Data set [9] deals with GABA-A receptor; alpha-1/beta-2/gamma-2 (Homo sapiens) (UniProt P14867+P47870+P18507). Briefly: Agonist activity at alpha1beta2gamma2 GABA-A receptor (unknown origin) at 10 uM at -70 mV holding potential by electrophysiological recording. It is filed as protein-complex assay.
The nature of data set [10]: Toxicity in Sprague-Dawley rat assessed as effect on gastrointestinal function by measuring ink peristalsis at 19 mg/kg administered as continuous infusion followed by maintenance at 3.25 mg/kg/min for 0 to 20 mins, 2.5 mg/kg/min for 20 to 30 mins and 2 mg/kg/min for 30 to 60 mins and further administered with ink suspension and measured after 10 mins. It is filed as organism-based. The settings on record: in vivo, other, 1.167 h, route par, time 70 min.

A short description of data set [11]: Toxicity in Sprague-Dawley rat assessed as effect on AST level at 19 mg/kg administered as continuous infusion followed by maintenance at 3.25 mg/kg/min for 0 to 20 mins, 2.5 mg/kg/min for 20 to 30 mins and 2 mg/kg/min for 30 to 60 mins. In kind it is organism-based. The settings on record: in vivo, other, 1 h, route par.
Data set [12] is described as follows: Drug metabolism in rat liver microsomes assessed as propofol release by measuring half life at 1 mg/ml measured upto 360 mins by LC-MS analysis. It is filed as ADME, Microsome. The settings on record: 6 h. (Liver microsomes are a subcellular fraction often used to study metabolism.)
Data set [13] is described as follows: Toxicity in ICR mouse assessed as histopathological changes in kidney at 1.5 times ED50, iv administered as single dose and measured after 14 days by H and E staining based analysis. In kind it is organism-based. The note with it: in vivo, 336 h, time 14 day.
In the next data set the test system is Rattus norvegicus. Briefly: Analgesic activity in Sprague-Dawley rat model of mechanical nociceptive irritation assessed as response to tail pinch at 19 mg/kg administered as continuous infusion followed by maintenance at 3.25 mg/kg/min for 0 to 20 mins, 2.5 mg/kg/min for 20 to 30 mins and 2 mg/kg/min for 30 to 60 mins. It is filed as functional, organism-based. The settings on record: route par.

Data set [14] can be described thus: Toxicity in Sprague-Dawley rat assessed as effect on end inspiratory pause at 19 mg/kg administered as continuous infusion followed by maintenance at 3.25 mg/kg/min for 0 to 20 mins, 2.5 mg/kg/min for 20 to 30 mins and 2 mg/kg/min for 30 to 60 mins and measured every 5 mins for 60 mins by whole-body plethysmography. In kind it is organism-based. The note with it: in vivo, other, 1 h, route par.

The target in the next data set is Cytochrome P450 2C9 (Homo sapiens, UniProt P11712). In words: Inhibition of CYP2C9 (unknown origin) using diclofenac as substrate at 10 uM. It is filed as ADME.
Chain of Cytochrome P450 2C9 (P11712 whole entry, the tested form may be a part): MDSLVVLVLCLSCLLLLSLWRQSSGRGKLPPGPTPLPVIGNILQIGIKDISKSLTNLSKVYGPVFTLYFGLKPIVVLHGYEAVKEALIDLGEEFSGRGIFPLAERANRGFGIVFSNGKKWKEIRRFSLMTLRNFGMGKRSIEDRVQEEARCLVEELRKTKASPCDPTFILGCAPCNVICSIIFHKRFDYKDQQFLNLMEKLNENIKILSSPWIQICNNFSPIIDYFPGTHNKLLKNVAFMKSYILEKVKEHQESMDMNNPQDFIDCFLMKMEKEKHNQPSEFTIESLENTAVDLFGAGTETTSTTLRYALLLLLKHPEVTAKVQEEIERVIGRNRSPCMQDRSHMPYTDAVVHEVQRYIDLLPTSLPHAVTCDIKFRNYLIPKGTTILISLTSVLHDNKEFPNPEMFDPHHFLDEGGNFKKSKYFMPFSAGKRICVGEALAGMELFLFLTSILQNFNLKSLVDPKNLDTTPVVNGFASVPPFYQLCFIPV
A short description of data set [15]: Toxicity in Sprague-Dawley rat assessed as Q-T interval prolongation at 19 mg/kg administered as continuous infusion followed by maintenance at 3.25 mg/kg/min for 0 to 20 mins, 2.5 mg/kg/min for 20 to 30 mins and 2 mg/kg/min for 30 to 60 mins by electrocardiogram recording. It is filed as organism-based. The settings on record: in vivo, other, 1 h, route par.

Data set [16] can be described thus: Toxicity in Sprague-Dawley rat assessed as histopathological changes in liver at 19 mg/kg administered as continuous infusion followed by maintenance at 3.25 mg/kg/min for 0 to 20 mins, 2.5 mg/kg/min for 20 to 30 mins and 2 mg/kg/min for 30 to 60 mins and measured after 14 days by H and E staining based analysis. The note with it: in vivo, other, 336 h, route par, time 14 day. It is filed as organism-based.

The next data set deals with Mus musculus. Briefly: Antiseizure activity in iv dosed ICR mouse model of PTZ-induced acute seizure assessed as reduction in maximum seizure class preadministered for 1 min followed by PTZ treatment and measured for 15 mins by Racine's scale based analysis. It is filed as functional, organism-based. The note with it: time 16.0 min.
Data set [17] in a line: Stability in mouse plasma assessed as half life at 1 mg/ml measured upto 360 mins by HPLC analysis. It is filed as ADME, cell-free.
Data set [18] in a line: Toxicity in Sprague-Dawley rat assessed as histopathological changes in heart at 19 mg/kg administered as continuous infusion followed by maintenance at 3.25 mg/kg/min for 0 to 20 mins, 2.5 mg/kg/min for 20 to 30 mins and 2 mg/kg/min for 30 to 60 mins and measured after 14 days by H and E staining based analysis. In kind it is organism-based. The settings on record: in vivo, other, 336 h, route par, time 14 day.

T1 sequence (Q9Y5Y9 whole entry): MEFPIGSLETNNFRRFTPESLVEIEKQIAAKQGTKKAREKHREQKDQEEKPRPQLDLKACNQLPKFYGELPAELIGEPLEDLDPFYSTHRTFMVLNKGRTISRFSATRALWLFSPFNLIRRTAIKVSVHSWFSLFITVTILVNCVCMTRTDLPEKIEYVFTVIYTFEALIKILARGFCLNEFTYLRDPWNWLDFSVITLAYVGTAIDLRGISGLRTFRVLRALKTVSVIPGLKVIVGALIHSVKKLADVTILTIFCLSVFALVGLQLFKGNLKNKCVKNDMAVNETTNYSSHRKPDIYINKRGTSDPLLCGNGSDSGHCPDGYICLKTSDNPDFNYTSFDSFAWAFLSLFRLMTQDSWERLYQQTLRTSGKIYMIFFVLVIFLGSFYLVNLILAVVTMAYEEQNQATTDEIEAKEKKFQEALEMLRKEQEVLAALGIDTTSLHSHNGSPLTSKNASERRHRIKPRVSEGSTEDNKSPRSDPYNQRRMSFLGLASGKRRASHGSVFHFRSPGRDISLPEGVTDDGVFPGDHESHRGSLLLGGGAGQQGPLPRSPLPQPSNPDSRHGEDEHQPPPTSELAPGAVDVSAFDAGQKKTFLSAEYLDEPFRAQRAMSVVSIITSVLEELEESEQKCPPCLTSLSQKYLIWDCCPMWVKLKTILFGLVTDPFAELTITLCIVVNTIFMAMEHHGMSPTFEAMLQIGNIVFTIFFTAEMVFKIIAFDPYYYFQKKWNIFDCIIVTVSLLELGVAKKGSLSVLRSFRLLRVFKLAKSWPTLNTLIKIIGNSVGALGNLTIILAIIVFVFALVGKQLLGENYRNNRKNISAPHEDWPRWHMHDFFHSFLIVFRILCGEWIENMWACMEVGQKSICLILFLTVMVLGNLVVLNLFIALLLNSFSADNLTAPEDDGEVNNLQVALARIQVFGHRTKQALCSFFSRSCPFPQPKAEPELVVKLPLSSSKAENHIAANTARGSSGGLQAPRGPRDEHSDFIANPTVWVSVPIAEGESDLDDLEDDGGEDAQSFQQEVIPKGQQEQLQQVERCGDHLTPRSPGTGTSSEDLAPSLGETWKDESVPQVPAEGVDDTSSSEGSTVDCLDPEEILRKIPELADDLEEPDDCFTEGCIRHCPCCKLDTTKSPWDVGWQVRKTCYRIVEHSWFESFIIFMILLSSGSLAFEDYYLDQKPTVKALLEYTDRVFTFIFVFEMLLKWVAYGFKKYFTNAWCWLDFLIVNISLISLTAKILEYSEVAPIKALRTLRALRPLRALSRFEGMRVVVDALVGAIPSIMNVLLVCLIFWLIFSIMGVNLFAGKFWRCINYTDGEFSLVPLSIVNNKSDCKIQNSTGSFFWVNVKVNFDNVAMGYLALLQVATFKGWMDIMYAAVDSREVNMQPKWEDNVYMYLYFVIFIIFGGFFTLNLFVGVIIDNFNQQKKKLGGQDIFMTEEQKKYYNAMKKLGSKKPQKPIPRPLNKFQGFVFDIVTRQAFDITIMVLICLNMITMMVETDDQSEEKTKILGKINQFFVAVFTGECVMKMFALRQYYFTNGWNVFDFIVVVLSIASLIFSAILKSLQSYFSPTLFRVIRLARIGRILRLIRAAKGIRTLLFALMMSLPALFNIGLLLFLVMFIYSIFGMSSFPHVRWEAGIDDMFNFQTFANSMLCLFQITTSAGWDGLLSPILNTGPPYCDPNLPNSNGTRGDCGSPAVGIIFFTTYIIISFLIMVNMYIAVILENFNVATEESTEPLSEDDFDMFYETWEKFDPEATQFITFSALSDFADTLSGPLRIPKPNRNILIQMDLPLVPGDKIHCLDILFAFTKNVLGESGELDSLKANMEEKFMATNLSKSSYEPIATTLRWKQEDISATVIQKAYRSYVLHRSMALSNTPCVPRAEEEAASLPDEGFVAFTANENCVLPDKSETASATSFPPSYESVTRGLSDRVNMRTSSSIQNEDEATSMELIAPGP
Chain of Sodium channel protein type 9 subunit alpha (Q15858 whole entry): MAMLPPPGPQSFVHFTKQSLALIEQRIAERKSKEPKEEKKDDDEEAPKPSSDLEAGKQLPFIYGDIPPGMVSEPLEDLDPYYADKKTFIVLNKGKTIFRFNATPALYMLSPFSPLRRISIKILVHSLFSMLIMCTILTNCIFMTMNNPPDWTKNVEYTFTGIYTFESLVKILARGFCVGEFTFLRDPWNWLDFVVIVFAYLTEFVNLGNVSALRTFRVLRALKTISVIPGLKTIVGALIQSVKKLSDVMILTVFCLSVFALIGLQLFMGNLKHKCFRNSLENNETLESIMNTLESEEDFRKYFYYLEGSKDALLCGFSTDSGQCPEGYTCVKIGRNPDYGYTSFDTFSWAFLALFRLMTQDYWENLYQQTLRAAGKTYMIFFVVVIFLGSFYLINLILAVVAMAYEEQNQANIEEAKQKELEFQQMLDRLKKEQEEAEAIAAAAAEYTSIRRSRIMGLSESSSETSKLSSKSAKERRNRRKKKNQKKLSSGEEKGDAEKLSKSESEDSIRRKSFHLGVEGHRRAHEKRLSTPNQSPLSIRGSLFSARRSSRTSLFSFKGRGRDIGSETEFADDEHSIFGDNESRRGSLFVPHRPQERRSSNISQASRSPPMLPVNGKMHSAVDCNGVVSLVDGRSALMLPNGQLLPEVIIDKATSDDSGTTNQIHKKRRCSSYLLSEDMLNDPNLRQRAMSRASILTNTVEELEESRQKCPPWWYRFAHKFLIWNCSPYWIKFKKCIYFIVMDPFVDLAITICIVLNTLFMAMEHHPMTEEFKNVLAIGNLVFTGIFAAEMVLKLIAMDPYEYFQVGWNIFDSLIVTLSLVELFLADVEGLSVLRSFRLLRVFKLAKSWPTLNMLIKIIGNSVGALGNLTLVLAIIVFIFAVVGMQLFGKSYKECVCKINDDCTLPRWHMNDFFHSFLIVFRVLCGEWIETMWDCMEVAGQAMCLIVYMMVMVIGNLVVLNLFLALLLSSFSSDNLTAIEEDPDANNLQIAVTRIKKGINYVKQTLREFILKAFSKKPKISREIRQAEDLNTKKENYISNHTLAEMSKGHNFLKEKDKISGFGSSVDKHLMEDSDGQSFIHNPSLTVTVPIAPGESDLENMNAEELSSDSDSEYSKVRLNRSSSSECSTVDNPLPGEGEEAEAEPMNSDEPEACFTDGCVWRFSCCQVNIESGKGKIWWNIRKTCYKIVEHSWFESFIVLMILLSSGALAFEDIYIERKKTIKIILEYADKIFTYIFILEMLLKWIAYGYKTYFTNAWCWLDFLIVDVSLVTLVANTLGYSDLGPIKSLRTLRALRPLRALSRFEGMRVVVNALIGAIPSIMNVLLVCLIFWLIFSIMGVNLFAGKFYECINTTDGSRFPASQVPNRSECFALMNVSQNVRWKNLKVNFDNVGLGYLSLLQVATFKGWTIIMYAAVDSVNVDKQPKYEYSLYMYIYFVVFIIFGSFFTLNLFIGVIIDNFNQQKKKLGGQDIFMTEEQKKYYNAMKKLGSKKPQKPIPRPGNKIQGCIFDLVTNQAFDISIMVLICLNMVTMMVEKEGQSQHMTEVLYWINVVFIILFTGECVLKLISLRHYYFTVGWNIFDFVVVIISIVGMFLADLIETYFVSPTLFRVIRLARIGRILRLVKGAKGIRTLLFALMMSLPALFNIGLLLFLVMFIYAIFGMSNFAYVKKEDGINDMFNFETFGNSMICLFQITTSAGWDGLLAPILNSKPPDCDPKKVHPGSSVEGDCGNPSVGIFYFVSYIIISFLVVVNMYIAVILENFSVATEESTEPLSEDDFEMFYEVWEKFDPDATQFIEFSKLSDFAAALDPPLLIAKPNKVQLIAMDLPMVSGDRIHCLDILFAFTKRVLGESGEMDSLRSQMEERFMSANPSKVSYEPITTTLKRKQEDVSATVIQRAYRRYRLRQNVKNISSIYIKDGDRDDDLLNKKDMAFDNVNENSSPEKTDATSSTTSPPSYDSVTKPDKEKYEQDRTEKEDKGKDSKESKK

`CCN(CC)CCOC(=O)Oc1c(C(C)C)cccc1C(C)C.Cl`: the Activity entry in data set [1], in [2], in [3], in data set [5], in data set [10] and in [11] was “Non-Toxic” in each case. The Activity entry in [13], in [14], in data set [15], in [16] and in data set [18] was “Non-Toxic” throughout. Moreover, the IC50 is 1.92 µM in data set [4], 7.43 µM in [6] and over 30 µM in data set [7]. Further, testing at 10 µM at CYP1A2 gave an inhibition of 26.2%. Further, the half-life at 1 mg/ml in data set [8] was 1.7 min; in data set [17], 19.2 min. Also, the outcome in [9] was inactive. The t1/2 in data set [12] turned out to be 81.09 min. Also, the outcome in the data set with Rattus norvegicus and in the data set with Mus musculus was Active. Moreover, the “inhibition (INH)” value against Cytochrome P450 2C9 was “Not Active”.
